Earlier results, collected in patent US7419680B2, “Calcium phosphate-based materials containing zinc, magnesium, fluoride and carbonate” (New York University, priority 2003, dated 2008).

Settings: earlier studies

For b-alanyl-L-histadanato zinc, the “bone density / bone loss in vivo” value is listed as “effective in increasing bone density or in preventing bone loss in vivo”.
